Reference: PMC7726444 (Frontiers in Pharmacology, 2020)

Key:
[1] = biological target: T1, doubly truncated TPH1 (ΔNH102-ΔCOOH402) (Homo sapiens, UniProt P17752); test: Tryptophan hydroxylase enzymatic activity assay (HPLC quantification of 5-OH-Trp), doubly truncated TPH1; assay type: biochemical
T1 construct: The ΔNH102-ΔCOOH402 human TPH1 gene was cloned; six-His (C); made in house

[2] = biological target: T2, WT full-length TPH2 (Homo sapiens, UniProt Q8IWU9); test: Tryptophan hydroxylase enzymatic activity assay, WT full-length TPH2; assay type: biochemical; conditions: mean (95% confidence interval), three experiments in duplicate
T2 construct: both the doubly truncated TPH1 protein and WT full-length TPH2 protein; made in house
T2 sequence (Q8IWU9 1-490): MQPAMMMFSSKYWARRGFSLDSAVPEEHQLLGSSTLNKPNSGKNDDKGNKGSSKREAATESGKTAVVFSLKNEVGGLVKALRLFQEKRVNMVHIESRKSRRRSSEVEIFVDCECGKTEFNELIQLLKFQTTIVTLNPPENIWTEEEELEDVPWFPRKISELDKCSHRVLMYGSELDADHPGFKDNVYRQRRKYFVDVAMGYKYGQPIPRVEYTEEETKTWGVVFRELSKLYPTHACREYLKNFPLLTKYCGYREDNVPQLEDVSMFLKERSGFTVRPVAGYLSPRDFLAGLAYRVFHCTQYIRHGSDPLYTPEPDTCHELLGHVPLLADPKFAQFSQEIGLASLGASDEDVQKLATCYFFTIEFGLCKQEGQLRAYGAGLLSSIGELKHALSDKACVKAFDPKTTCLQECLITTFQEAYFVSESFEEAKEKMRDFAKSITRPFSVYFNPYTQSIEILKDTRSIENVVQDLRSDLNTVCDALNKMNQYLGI

[3] = biological target: T3, WT human TH (Homo sapiens, UniProt P07101); test: TH enzymatic activity assay (selectivity); assay type: biochemical; conditions: up to a concentration of 100 µM
T3 construct: made in house
T3 sequence (P07101 1-497 isoform P07101-3): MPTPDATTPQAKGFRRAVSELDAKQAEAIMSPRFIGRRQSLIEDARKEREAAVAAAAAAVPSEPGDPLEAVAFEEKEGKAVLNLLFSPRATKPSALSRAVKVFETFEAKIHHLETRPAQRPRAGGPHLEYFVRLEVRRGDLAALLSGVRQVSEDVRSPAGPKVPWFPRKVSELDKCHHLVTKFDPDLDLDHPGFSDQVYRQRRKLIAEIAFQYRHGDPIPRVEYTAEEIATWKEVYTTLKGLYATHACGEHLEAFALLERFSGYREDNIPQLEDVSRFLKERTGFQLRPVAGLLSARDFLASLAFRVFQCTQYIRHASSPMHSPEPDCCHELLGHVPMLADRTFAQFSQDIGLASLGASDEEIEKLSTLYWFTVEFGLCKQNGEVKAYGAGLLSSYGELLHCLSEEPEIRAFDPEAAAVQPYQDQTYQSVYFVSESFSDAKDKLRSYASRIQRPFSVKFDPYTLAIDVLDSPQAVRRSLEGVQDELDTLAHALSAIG
Description: Full-length WT TPH1 and TPH2 were expressed as N-terminal six-His-maltose-binding protein fusion proteins in pETM-41 and were cleaved and purified as described previously ([McKinney et al., 2004]; [Winge et al., 2007]). Human WT PAH and TH were expressed and isolated as described previously ([Flydal et al., 2012]; [Bezem et al., 2016]).
Purified WT human TPH2, PAH, and TH were used for this purpose, and the activity assays for each enzyme was performed as described previously ([Haavik and Flatmark, 1980]; [Winge et al., 2007]; [Aubi et al., 2015]; [Bezem et al., 2016]).

[4] = biological target: T1, doubly truncated TPH1 (ΔNH102-ΔCOOH402); test: Mechanism of action and kinetics analysis of TPH1 inhibition (Michaelis-Menten); assay type: biochemical
Description: 5-OH-Trp formation was measured either at a fixed concentration (200 µM) of the cofactor, BH4, and varying concentrations (0.625–20 µM) of the substrate, L-Trp, or in the presence of varying concentrations of BH4 (2.4–200 µM) and a fixed concentration (20 µM) of L-Trp. Kinetic parameters were estimated by fitting the Michaelis-Menten model to the data using nonlinear regression.
Human doubly truncated TPH1 (ΔNH102-ΔCOOH402) was used for kinetic protein-ligand interaction studies. The enzyme assays were performed as described above. […] When enzyme activity was measured as a function of substrate (L-Trp) concentration (0.625–20 µM), the concentration of the cofactor (BH4) was fixed at 200 µM.

[5] = tested on: CD-1 mice; test: Tail suspension test; assay type: in vivo, mouse; conditions: 100 mg/kg i.p. once daily for 4 days, test 20 h after last dose, 6 min trial; p = 0.028, Mann-Whitney test
From the text: Male CD-1 mice (Janvier Labs, Le Genest-St-Isle, France), 3 months of age were used. The animals in the different treatment groups were matched for age. The University of Barcelona’s Committee on Animal Use and Care approved the protocol. Animals were housed and tested in compliance with the guidelines described in the Guide for the Care and Use of Laboratory Animals ([Clark et al., 1997]) and following the European Union directives (2010/63/EU), FELASA and ARRIVE guidelines. All efforts were made to minimize animal suffering and the number of animals used. All animals were housed in groups of five in standard cages with ad libitum access to food and water and maintained under a 12-h dark/light cycle (starting at 7:30 AM), 22°C temperature, and 66% humidity. […] While all treated animals were tested in the tail suspension test, brain tissue from eight of the vehicle-treated and nine of the omeprazole-treated mice was used for subsequent analysis of 5-HT content. Serum samples for 5-HT analysis were drawn from another nine vehicle-treated and eight omeprazole-treated mice.
Immobility time in the tail suspension test is known to be sensitive to manipulations that alter brain 5-HT content ([Garcia-Miralles et al., 2016]; [Palucha-Poniewiera et al., 2017]). […] Each animal was suspended for 6 min and the time spent immobile during suspension was counted using a stopwatch. […]

T1 sequence (P17752 102-402, stated change not applied): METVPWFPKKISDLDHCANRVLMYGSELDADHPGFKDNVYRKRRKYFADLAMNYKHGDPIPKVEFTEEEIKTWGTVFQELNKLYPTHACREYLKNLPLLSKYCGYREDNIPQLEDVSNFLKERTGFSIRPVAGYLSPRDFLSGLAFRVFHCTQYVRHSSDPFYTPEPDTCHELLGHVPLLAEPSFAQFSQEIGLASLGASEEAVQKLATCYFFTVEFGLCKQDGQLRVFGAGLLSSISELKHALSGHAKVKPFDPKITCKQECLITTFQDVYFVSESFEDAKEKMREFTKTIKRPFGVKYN

## COc1ccc2[nH]c([S+]([O-])Cc3ncc(C)c(OC)c3C)nc2c1 (stereo not drawn) [Omeprazole]
[1]; 100 µM compound, preliminary activity assay
  reduction of TPH1 activity: more than 50%
[1]; doubly truncated TPH1, 20 µM L-Trp, 200 µM BH4, 37°C, mean (95% confidence interval), three experiments in duplicate
  IC50: 3.09 µM
[2]
  IC50: 4.3 µM
[3]
  inhibition of TH: no inhibition
[4]; (A) L-Trp 0.625–20 µM, BH4 200 µM, omeprazole 1 µM
  Vmax: 24.96 (23.18–26.74) µmol/min/mg
[4]; (A) L-Trp 0.625–20 µM, BH4 200 µM, omeprazole 10 µM
  Vmax: 21.08 (18.84–23.32) µmol/min/mg
[4]; (A) L-Trp 0.625–20 µM, BH4 200 µM, omeprazole 100 µM
  Vmax: 7.03 (6.07–7.98) µmol/min/mg
[4]; (B) BH4 2.4–200 µM, L-Trp 20 µM, omeprazole 1 µM
  Vmax: 39.93 (37.18–42.69) µmol/min/mg
[4]; (B) BH4 2.4–200 µM, L-Trp 20 µM, omeprazole 10 µM
  Vmax: 31.06 (28.90–33.21) µmol/min/mg
[4]; (B) BH4 2.4–200 µM, L-Trp 20 µM, omeprazole 100 µM
  Vmax: 21.11 (18.96–23.26) µmol/min/mg
[4]; with respect to L-Trp and to BH4
  mode of TPH1 inhibition: non-competitive inhibitor
[5]
  time spent immobile in tail suspension test vs vehicle: significantly less time immobile
